Source: publication PMC7822874, “Chemoprotective antimalarials identified through quantitative high-throughput screening of Plasmodium blood and liver stage parasites” (Scientific Reports, 2021)

Test: in vitro
Settings: human, hepg2-a16-cd81egfp cells, % viability
Note: reference of the scale not given here.

Row | Compound | viability at 3 µM [%]
1 | CCN(CC)CCN1C(=O)c2ccccc2NC1c1ccc(Br)cc1 (stereo not drawn) [MLS000723891] | 87.8
2 | N#Cc1nc(Nc2cc(F)cc(F)c2)c2ncn(CC(F)F)c2n1 [MLS002471784] | 90
3 | CCCC(=O)Nc1sc2c(c1C(=O)Nc1ccccn1)CCCC2 [MLS000765104] | 97.6
4 | Cc1ccc(NC2=C/C(=N\S(=O)(=O)c3cccs3)c3ccccc3C2=O)cc1C [MLS000585841] | 81.7
5 | O=C(Nc1ccc(Br)cc1)c1ccc(F)c([S+](=O)([O-])NC2CCCCCC2)c1 [NCGC00139407] | 78.6
6 | N#Cc1ccc(NC(=O)Nc2ccc(Cl)cc2)cc1 [MLS000104525] | 77.8
7 | N#Cc1cc(C#N)c(N2CCN(c3cccc(Cl)n3)CC2)nc1N [MLS000325470] | 99.6
8 | Cc1cc(C)n(-c2nc(NC(C)C)nc(NC(C)C)n2)n1 [MLS000068521] | 105
9 | O=C(Nc1nc(-c2ccccn2)cs1)c1cccc(-n2cnnn2)c1 [MLS000770597] | 63.7
10 | COc1cc(NC(=O)c2cc([N+](=O)[O-])ccc2NC(=O)CNC2CCCCC2C)cc(OC)c1 (stereo not drawn) [MLS000950459] | 90.2
11 | Clc1ccc(CCC(Cn2ccnc2)Sc2c(Cl)cccc2Cl)cc1 (stereo not drawn) [NCGC00179596] | 100
12 | COc1ccc(Cl)cc1NC(=O)c1cc(-c2cc(C)ccc2O)[nH]n1 [MLS000779126] | 108
13 | Cc1ccc(Sc2ccc(NC(=O)CCl)cc2)cc1C [MLS000334846] | 93.9
14 | COc1ccccc1Nc1cnc2ccc(-c3ccc(OC)c(OC)c3)nn12 [NCGC00412573] | 82.7
15 | CC(C)(C)N1C(=O)c2ccc(C(=O)Nc3ccc(-c4nc5ccccc5[nH]4)cc3)cc2C1=O [MLS000567491] | 104
16 | CCOc1ccc(CCNC(=O)Nc2ccccc2)cc1OCC [MLS001197603] | 99.4
17 | Clc1ccc2c(N/N=C/c3ccc(Br)cc3)ccnc2c1 [MLS000589586] | 104
18 | O=C(Nc1ccc(S(=O)(=O)N2CCOCC2)cc1)c1cc(-c2cc(Cl)ccc2O)n[nH]1 [MLS000778989] | 73.1
19 | Cc1noc(C)c1CSc1nc2sc3c(c2c(=O)n1C)CCCC3 [MLS000564913] | 89.9
20 | CCOc1ccc(Nc2cc(=O)oc3ccccc23)cc1 [MLS000519261] | 103

Row | Compound | viability at 3 µM [%]
21 | C=C[C@]1(C)C[C@@H](OC(=O)CSC(C)(C)CNC(=O)[C@H](N)C(C)C)[C@]2(C)[C@H](C)CC[C@]3(CCC(=O)[C@H]32)[C@@H](C)[C@@H]1O [NCGC00167968] | 87.5
22 | COc1ccc(OC)c(-n2c(-c3cccc(O)c3)n[nH]c2=S)c1 [MLS000089016] | 93.1
23 | Cc1ccc(-c2cc3c(nn2)-c2ccccc2C3=O)cc1 [MLS000104226] | 76.2
24 | CCOC(=O)c1nnn(-c2nonc2N)c1-c1ccc(Br)cc1 [MLS000727795] | 96.5
25 | O=C(/C(=C/c1ccc(Cl)cc1)c1nc2ccccc2[nH]1)c1cccs1 [MLS000565128] | 79.2
26 | O=C1c2ccccc2-n2c1nc1ccccc1c2=O [MLS001049121] | 81.6
27 | Cc1ccc(-c2cc(C(=O)Nc3ccc(S(=O)(=O)N4CC(C)OC(C)C4)cc3)[nH]n2)c(O)c1 (stereo not drawn) [MLS000779230] | 89.2
28 | CCCC(=O)NC(c1ccc(OC)cc1)c1ccc2cccnc2c1O (stereo not drawn) [MLS000715379] | 59.7
29 | O=C(CCl)Nc1cccc(-c2cnc3ccccc3n2)c1 [MLS000541295] | 88.6
30 | COc1cccc(-c2c(C#N)c(N)nc3c2c(C)nn3-c2ccccc2)c1O [MLS001214341] | 90.5
31 | Cc1ccc(-c2cc(C(F)(F)F)n3ncc(C(=O)N4CCCCC4c4cccnc4)c3n2)cc1 (stereo not drawn) [MLS000729132] | 89.9
32 | CCN(CC)CC(O)COc1ccccc1C(=O)CCc1ccccc1 (stereo not drawn) [MLS000107538] | 104
33 | O=C(CSc1nc(Nc2ccccc2)nc(N2CCOCC2)n1)Nc1cc(Cl)ccc1O [MLS001035450] | 85.3
34 | CC1(C)Cc2ccccc2C2=NNC(=O)C2=N1 [MLS000709658] | 94.5
35 | CCOc1ccc(C(C)NC(S)=NC2CCCCC2)cc1OCC (stereo not drawn) [MLS001007596] | 95.1
36 | N=c1ccn(CC(=O)c2ccc(-c3ccccc3)cc2)cc1 [MLS000698051] | 53.4
37 | Clc1ccccc1C(c1ccccc1)(c1ccccc1)n1ccnc1 [NCGC00015251] | 99.7
38 | Oc1ccc(-c2ccccc2)cc1CN1CCCCCC1 [MLS001195126] | 104
39 | COc1cc2nc(Nc3ccc(C)c(C)c3)nc(N)c2cc1OC [MLS001199689] | 102
40 | COc1cc2nc(SCc3ccc(F)cc3)n3nc(CCn4c(C)nc5ccccc54)nc3c2cc1OC [NCGC00108638] | 107

Row | Compound | viability at 3 µM [%]
41 | O=C(Nc1ccc2c(N3CCCCC3)ncnc2c1)c1cc(F)cc(F)c1 [NCGC00425525] | 53.4
42 | Cc1cc(Nc2ccc(Cl)cc2)nc(NCc2ccccc2)n1 [MLS000591025] | 87.8
43 | COc1ccc(NC(=O)C(c2ccc(Cl)cc2)C(C)C)cn1 (stereo not drawn) [MLS001149289] | 88.5
44 | CC(Oc1ccc(F)cc1)C(=O)Nc1cc(C(F)(F)F)ccc1-n1cncn1 (stereo not drawn) [MLS001160637] | 101
45 | CCN(CC)CCOC(=O)c1ccc(N/C=C(/C#N)c2nc(-c3cc4ccccc4oc3=O)cs2)cc1 [MLS001164950] | 105
46 | COc1cccc2sc(N3CCN(C(=O)c4ccc([N+](=O)[O-])o4)CC3)nc12 [MLS001234267] | 93.6
47 | CC(C)(C)Nc1nc(NC(C)(C)C)nc(-n2ccnc2)n1 [MLS000044025] | 90.9
48 | CC[C@@H](C(=O)[C@@H](C)[C@@H](O)[C@H](C)CCc1ccc(C)c(O)c1C(=O)O)[C@H]1O[C@](CC)([C@H]2CC[C@](O)(CC)[C@H](C)O2)C[C@@H]1C [NCGC00095029] | 27.3
49 | COc1cc(C2NCc3ccccc3-n3cccc32)ccc1O (stereo not drawn) [MLS000047988] | 102
50 | O=C(N/N=C(/c1ccccc1)c1cccnc1)c1cccc(F)c1 [MLS001224623] | 32
51 | c1ccc(-c2cccc(-c3ccccn3)n2)nc1 [MLS000048666] | 19.2
52 | COc1ccccc1-c1cc(C(=O)N2CCN(S(=O)(=O)c3ccc(C)cc3)CC2)[nH]n1 [MLS000924750] | 96.6
53 | Cc1ccc(S(=O)(=O)N2CCN(/C(S)=N/Cc3ccc4c(c3)OCO4)CC2)cc1 [MLS001002637] | 97.3
54 | OC(CNCC1CCCO1)Cn1c2ccc(Cl)cc2c2cc(Cl)ccc21 (stereo not drawn) [MLS000525403] | 90.7
55 | O=C(Nc1nc(-c2ccccn2)cs1)c1cccc(S(=O)(=O)N2CCOCC2)c1 [MLS002161290] | 62.2
56 | CC(C(=O)N1CCCC1)N1CCN(S(=O)(=O)c2ccc(C(C)(C)C)cc2)CC1 (stereo not drawn) [MLS002156464] | 92.8
57 | COc1ccc(-n2nc(C(=O)NCC(=O)N3CCN(c4ccccc4OC)CC3)c3ccccc3c2=O)c(OC)c1 [MLS000936211] | 90.4
58 | CC1CCN(S(=O)(=O)c2ccc3c(c2)C(=NO)c2cc(S(=O)(=O)N4CCC(C)CC4)ccc2-3)CC1 [MLS000551434] | 6.86
59 | CC(NCc1ccccc1O)C12CC3CC(CC(C3)C1)C2 (stereo not drawn) [MLS001173343] | 97.5
60 | Cc1cc(Nc2ccc(Br)c(C)c2)n2nc(C)nc2n1 [MLS000116638] | 87.3
